Reference: patent US7833795B2, “Assessment of cardiovascular risk using isoprostane biomarkers and COX-2 selective inhibitors” (The Trustees of the University of Pennsylvania, priority 2004, dated 2010)

Key:
Type in all cases: in vivo, rat
Male Fisher 344 rats [1] = experiment: Plasma lipid hydroperoxides (iodometric assay) after CCl4
Description: (§1) Animals and treatment protocol: Male Fisher 344 rats (260-280 g) obtained from Charles River Laboratories (Raleigh, N.C.) were used in all experiments. The animals were housed three to a cage. Autoclaved hardwood bedding was used in solid-bottom polycarbonate cages with filter tops. Animal rooms were maintained at 20-25° C. with 35-70% relative humidity with alternating 12-hour light and dark cycles. The rats had free access to deionized, reverse-osmosis-treated water and received autoclaved NIH 31 rodent chow (Zeigler Bros., Gardners, Pa.) ad libitum. For all experiments, rats were fasted overnight and then administered intraperitoneal injections of carbon tetrachloride in canola oil. Control rats received an equal volume of canola oil. Fasting continued throughout the experiment. Rats were anesthetized with Nembutal (0.1 ml/100 g body weight) and 5 ml blood was removed from the dorsal aorta proximal to its bifurcation into the common iliac arteries.
(§2) Carbon tetrachloride (CCL4) treatment: Animals from each of the three dose groups (Control-canola oil, 120 mg/kg CCl4 i.p. and 1200 mg/kg CCl4 i.p.) were investigated at three time points (2, 7, and 16 hours after CCl4 injection). Indomethacin-pretreated rats were also investigated at the same three time points, and the meclofenamic acid-pretreated rats were investigated at one time point (7 hours). Each group consisted of five rats for each analysis, except the meclofenamic acid pretreatment group which consisted of six rats. Animal treatment, sample preparation, assessment of liver histology and serum enzyme activities are described elsewhere (Kadiiska et al., 2000, Free Radic. Biol. Med. 28: 838-845; Jackson, 1989, J. Pharmacol. Exp. Ther. 250: 9-21) and were carried out at NIEHS, Research Triangle Park, N.C.
(§3) Plasma sample preparation: Blood (5 ml) was drawn through single draw Vacutainer® needles (21 Gauge) into open Vacutainer® blood collection tubes containing heparin. The tubes were gently inverted 2-3 times for mixing and immediately placed on ice. Blood was centrifuged (2,000 rpm for 10 minutes at 4° C.) no more than 30 minutes after collection, and the plasma was collected, frozen on dry ice and stored at −70° C.
The second assay of plasma lipid hydroperoxides used iodometric spectrophotometric determination. Concentrations of lipid hydroperoxides were measured according to a slightly modified procedure of Cramer et al. (1991, Anal. Biochem. 193: 204-211) where plasma was treated to enzymatically hydrolyze lipids, and nonesterified fatty acid peroxides were then extracted with ethyl acetate. Extracted lipids were reacted with potassium iodide in citric acid and methylene chloride, and the resulting triiodide ion (I3^−) was measured spectrophotometrically. All measurements were done at the United States Environmental Protection Agency (EPA), Research Triangle Park, N.C.

Male Fisher 344 rats [2] = experiment: Plasma TBARS after CCl4
Description: as §1, §2, §3
Malondialdehyde (MDA) in plasma was measured using several different assays. In one assay in Experimental Example 1, free MDA and other thiobarbituric acid-reactive substances (TBARS) (MDA-protein adducts) were measured with the thiobarbituric acid (TBA assay) (Draper et al., 1993, Free Radic. Biol. Med. 15: 353-363). One ml of biological sample was combined with 2.0 ml of 1:1 TCA/TBA (30% trichloracetic acid and 0.67% thiobarbituric acid) in the presence of 200 mM butylated hydroxytoluene (BHT) for spectrophotometric readings (Porter et al., 1976, Biochim. Biophys. ACTA 441: 506-512). The incubation mixture was heated for 20 minutes in boiling water. The samples were centrifuged (2,000 rpm for 10 minutes at 4° C.), and the TBARS concentration was determined based on the absorbance at 532 nm measured with a Beckman DU-7 spectrophotometer at room temperature. Measurements were done at NIEHS, Research Triangle Park, N.C. in the case of Experimental Example 1.

Male Fisher 344 rats [3] = experiment: Plasma protein carbonyls
Description: as §1, §2, §3
Several different assays for oxidation products of proteins were employed. The protein carbonyl content (Agarwal and Sohal, 1995, Mech. Ageing Develop. 85: 55-63), indicative of plasma protein oxidative damage, was measured according to the method of Levine et al. (Levine et al., 1994, Meth. Enzymol. 233: 346-357), based on derivatization of carbonyls with tritiated borohydride, as described in detail by Yan and Sohal (2000, Current Protocols Protein Science 144: 105-128). The isolated protein was counted in a Beckman scintillation counter and calculated using a standard curve. The measurements were performed at the University of Southern California, Los Angeles.

Male Fisher 344 rats [4] = experiment: Plasma methionine sulfoxidation
Description: as §1, §2, §3
Methionine sulfoxidation was measured according to Levine et al. (1996, Proc. Natl. Acad. Sci. USA 93: 15036-15040). In brief, serum samples were hydrolyzed with HCl. The methionine sulfoxide residue was converted to methionine, which represents the methionine sulfoxide level in the protein. The samples were analyzed on a Beckman Model 7300 amino acid analyzer. The methionine concentrations were measured at Weill Medical College of Cornell University, New York, N.Y., USA.

`ClC(Cl)(Cl)Cl` [CCl4, Carbon tetrachloride] was tested, and the “LOOH (iodometric assay)” value (Male Fisher 344 rats [1]; CCl4 120 mg/kg i.p., 2 h) was 0.30 µM, the “LOOH (iodometric assay)” value (Male Fisher 344 rats [1]; CCl4 120 mg/kg i.p., 7 h) was 0.30 µM and the “LOOH (iodometric assay)” value (Male Fisher 344 rats [1]; CCl4 120 mg/kg i.p., 16 h) was 0.56 µM. The “LOOH (iodometric assay)” value (Male Fisher 344 rats [1]; CCl4 1200 mg/kg i.p., 2 h) was 1.42 µM, the “LOOH (iodometric assay)” value (Male Fisher 344 rats [1]; CCl4 1200 mg/kg i.p., 7 h) was 0.40 µM and the “LOOH (iodometric assay)” value (Male Fisher 344 rats [1]; CCl4 1200 mg/kg i.p., 16 h) was 0.39 µM. The TBARS (Male Fisher 344 rats [2]; CCl4 120 mg/kg i.p., 2 h) was 4.1 µM, the TBARS (Male Fisher 344 rats [2]; CCl4 120 mg/kg i.p., 7 h) was 10.4 µM and the TBARS (Male Fisher 344 rats [2]; CCl4 120 mg/kg i.p., 16 h) was 13.0 µM. For the same compound, the TBARS (Male Fisher 344 rats [2]; CCl4 1200 mg/kg i.p., 2 h) was 4.2 µM, the TBARS (Male Fisher 344 rats [2]; CCl4 1200 mg/kg i.p., 7 h) was 9.4 µM and the TBARS (Male Fisher 344 rats [2]; CCl4 1200 mg/kg i.p., 16 h) was 10.7 µM. For the same compound, the “Protein carbonyls (by HPLC)” value (Male Fisher 344 rats [3]; CCl4 120 mg/kg i.p., 2 h) was 0.40 nmol/mg protein, the “Protein carbonyls (by HPLC)” value (Male Fisher 344 rats [3]; CCl4 120 mg/kg i.p., 7 h) was 0.42 nmol/mg protein and the “Protein carbonyls (by HPLC)” value (Male Fisher 344 rats [3]; CCl4 120 mg/kg i.p., 16 h) was 0.51 nmol/mg protein. For the same compound, the “Protein carbonyls (by HPLC)” value (Male Fisher 344 rats [3]; CCl4 1200 mg/kg i.p., 2 h) was 0.53 nmol/mg protein, the “Protein carbonyls (by HPLC)” value (Male Fisher 344 rats [3]; CCl4 1200 mg/kg i.p., 7 h) was 0.59 nmol/mg protein and the “Protein carbonyls (by HPLC)” value (Male Fisher 344 rats [3]; CCl4 1200 mg/kg i.p., 16 h) was 0.48 nmol/mg protein. The Methionine sulfoxide (Male Fisher 344 rats [4]; CCl4 120 mg/kg i.p., 2 h) was 2.3 % of total methionine, the Methionine sulfoxide (Male Fisher 344 rats [4]; CCl4 120 mg/kg i.p., 7 h) was 1.7 % of total methionine and the Methionine sulfoxide (Male Fisher 344 rats [4]; CCl4 120 mg/kg i.p., 16 h) was 3.1 % of total methionine. For the same compound, the Methionine sulfoxide (Male Fisher 344 rats [4]; CCl4 1200 mg/kg i.p., 2 h) was 1.8 % of total methionine, the Methionine sulfoxide (Male Fisher 344 rats [4]; CCl4 1200 mg/kg i.p., 7 h) was 1.1 % of total methionine and the Methionine sulfoxide (Male Fisher 344 rats [4]; CCl4 1200 mg/kg i.p., 16 h) was 1.7 % of total methionine.
